# Experimental data from the COVID Moonshot data (paper PMC7615835).
# Where “and” joins values, the source holds several entries; their conditions need not be identical. Equal entries are not always repeated.
# Columns and labels:
# [1] = calu3
# SARS-CoV-2 (SARS-CoV-2) [2] = details: vero6
# [3] = helaace2
# [4] = a549
# SARS-CoV-2 (SARS-CoV-2) [5] = details: helaace2
structure (smiles),measurement,setting,value
Cc1ccncc1NC(=O)Cc1cc(Cl)cc(OC2CC(=O)N2)c1 (configuration not stated),CC50,[1],63500 nM
CNC(=O)c1cc2c(NC(=O)C3CCOc4ccc(Cl)cc43)cncc2s1 (configuration not stated),IC50,SARS-CoV-2 (SARS-CoV-2) [2],568 nM
O=C(Nc1cncc2ccccc12)C1CN(S(=O)(=O)CC2CNC2)Cc2ccc(Cl)cc21 (configuration not stated),CC50,[3],> 20000 nM
NC(=O)CN1Cc2ccc(Cl)cc2C(C(=O)Nc2cncc3ccccc23)C1 (configuration not stated),IC90,SARS-CoV-2 (SARS-CoV-2) [2],< 40 nM
O=C1NCC(C(=O)Nc2cncc3ccccc23)c2cc(Cl)ccc21 (configuration not stated),IC90,SARS-CoV-2 (SARS-CoV-2) [2],> 5000 nM and 2280 nM
O=C(Nc1cncc2ccccc12)C1CCNc2cc(Cl)c(Cl)cc21 (configuration not stated),CC50,[4],< 22.9 nM
CCC(CC)COC(=O)[C@H](C)NP(=O)(OC[C@H]1O[C@@](C#N)(c2ccc3c(N)ncnn23)[C@H](O)[C@@H]1O)Oc1ccccc1 (stereo in doubt),IC50,SARS-CoV-2 (SARS-CoV-2) [5],240 nM
